Measurements published in patent US20110053883A1, “AGENT THAT MODULATES PHYSIOLOGICAL CONDITION OF PESTS, INVOLVED IN INSECT C-JUN AMINO-TERMINAL KINASE ACTIVITY” (SUMITOMO CHEMICAL COMPANY, LIMITED, priority 2005, published 2011).
Like-named read-outs stand apart in the source and are kept apart here.

Columns and labels:
[1] = target: aphid c-Jun NH2-terminal kinase (Aphis gossypii, UniProt A0A9P0JGV4); experiment: In vitro aphid c-Jun NH2-terminal kinase activity measurement (IMAP fluorescence polarization, peptide substrate); assay type: biochemical, cotton aphid (Aphis gossypii); conditions: for IC50: concentrations 100 μM to 0.03 μM, XLfit, read-out: Activity of inhibiting c-Jun NH2-terminal kinase activity (IC50, (μM)); for inhibition at 10 µM: test compound at final concentration of 10 μM, relative to DMSO, read-out: Activity of inhibiting c-Jun NH2-terminal kinase activity (inhibition degree (%) at 10 μM addition)
Sequence of aphid c-Jun NH2-terminal kinase (A0A9P0JGV4 entry or part of it): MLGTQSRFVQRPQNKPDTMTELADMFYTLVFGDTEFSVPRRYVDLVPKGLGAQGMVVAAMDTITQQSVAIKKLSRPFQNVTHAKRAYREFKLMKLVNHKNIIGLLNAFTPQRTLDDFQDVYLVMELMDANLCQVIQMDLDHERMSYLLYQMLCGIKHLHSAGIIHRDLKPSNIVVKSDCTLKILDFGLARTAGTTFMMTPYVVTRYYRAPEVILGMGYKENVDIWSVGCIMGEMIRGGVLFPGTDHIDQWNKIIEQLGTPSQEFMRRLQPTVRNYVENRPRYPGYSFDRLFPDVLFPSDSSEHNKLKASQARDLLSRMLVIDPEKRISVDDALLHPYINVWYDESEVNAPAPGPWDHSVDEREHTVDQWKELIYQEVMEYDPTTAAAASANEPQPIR
Procedure: Selection of a compound which modulates the activity of a c-Jun NH2-terminal kinase was performed in a system where the activity of a c-Jun NH2-terminal kinase which is modulated by adding a test compound to an in vitro reaction system using the aphid c-Jun NH2-terminal kinase prepared in Example 7 is measured and evaluated.
Measurement of the activity of the aphid c-Jun NH2-terminal kinase was performed using IMAP screening Express Kit with progressive Binding system (manufactured by Molecular Device) according to a method described in the manual annexed to the system and employing, as a substrate, a peptide comprising the amino acid sequence of SEQ ID NO: 13 to which biotin was added at the amino-terminus, and a peptide comprising the amino acid sequence of SEQ ID NO: 14 in which the carboxyl-terminus was fluorescently labeled.
For measuring the activity, the activity of the aphid c-Jun NH2-terminal kinase was measured when a test compound dissolved in DMSO was contained to a final concentration of 10 μM. In addition, the activity of the aphid c-Jun NH2-terminal kinase was measured when DMSO was contained in place of a test compound. Then, a ratio (%) of a measured value of the activity of the aphid c-Jun NH2-terminal kinase when a test compound dissolved in DMSO was contained, relative to a measured value of the activity of aphid c-Jun NH2-terminal kinase when DMSO was contained in place of the test compound was calculated, and a value obtained by subtracting the calculated value from 100% was adopted as an inhibition degree (%). Results in each test compound are shown in Table 4 in Example 9 together with results of Example 9.
The activity of aphid c-Jun NH2-terminal kinase was measured when a test compound dissolved in DMSO was contained to a final concentration of each concentration of 100 μM, 30 μM, 10 μM, 3 μM, 1 μM, 0.3 μM, 0.1 μM or 0.03 μM. IC50 (μM) was calculated from the result of each concentration at each test compound using a concentration-dependent test analyzing software XL fit (manufactured by idbs). Results are shown in Table 5 in Example 10 together with results of Example 9.

[2] = system: Aphis gossypii; experiment: Pesticidal activity test, rearing on artificial feed containing the test compound; assay type: in vivo; conditions: 144 h, read-out: Determination result of pesticidal activity; for pest or weed control at 50 ppm: test compound in DMSO to a final concentration of 50 ppm
Procedure: A sterilized artificial feed having the following composition (Table 3) was prepared. Then, according to the same manner as that of the method described in Handbook of Insect Rearing Vol. 1 (Elsevier Science Publishers 1985) pp. 35 to pp. 36 except that a test compound dissolved in DMSO to a final concentration of 640 μM was added at 0.5 volume of the artificial feed, and components were mixed, Aphis gossypii was reared. […] Controlling value(%)={1−(Cb×Tai)/(Cai×Tb)}×100 Letters in the equation represent the following meanings. Cb: Number of surviving worms before treatment in non-treated section Cai: Number of surviving worms at observation in non-treated section Tb: Number of surviving worms before treatment in treated section Tai: Number of surviving worms at observation in treated section […]

[3] = in artificial feed, surviving Aphis gossypii six days after rearing
[4] = test compound in DMSO to a final concentration of 640 μM, in artificial feed, surviving Aphis gossypii six days after rearing

For `O=C1CC2(Oc3ccccc3O2)C(=O)O1` [DB04029], which IC50 [1] is on record?
Its IC50 is greater than 100 µM.

What about the pest or weed control at 50 ppm [2, 3] of the same compound?
The pest or weed control at 50 ppm was less than 30%.

Which inhibition at 10 µM [1] does the source give for `O=C1NC(=O)C(c2c[nH]c3ccccc23)=C1c1c[nH]c2ccccc12` [Arcyriarubin A, reference compound] here?
Its inhibition at 10 µM is 73%.

And the pest or weed control at 640 µM [2, 4]?
The pest or weed control at 640 µM was greater than 30%.

What does the source list for `CC(C)(C)n1nc(-c2cccc3ccccc23)c2c(N)ncnc21` [4-amino-1-tert-butyl-3-(1-naphthyl) pyrazolo(3,4-d) pyrimidine, reference compound]?
inhibition at 10 µM [1]: 68%; pest or weed control at 640 µM ([2]; Aphis gossypii): > 30%

For `CCOC(=O)/C(=C(/F)SCC(C)=O)C(F)(F)F` [DF06524], which IC50 [1] is on record?
The IC50 was 47.9 µM.

And the pest or weed control at 50 ppm [2, 3]?
The pest or weed control at 50 ppm was greater than 30%.

Which results are given for `COc1ccc(C(=O)c2ccccc2)c(O)c1` [DD08100]?
IC50 [1]: > 100 µM; pest or weed control at 50 ppm [2, 3]: < 30%

For `O=C1c2ccccc2-c2n[nH]c3cccc1c23` [Anthra[1,9-CD] pyrazole-6(2H)-one, reference compound], which inhibition at 10 µM [1] is on record?
The inhibition at 10 µM was 83%.

And the pest or weed control at 640 µM [2, 4]?
Its pest or weed control at 640 µM is greater than 30%.

For `Sc1ncnc2nc[nH]c12` [DD08068], which IC50 [1] is on record?
Its IC50 is greater than 100 µM.

What about the pest or weed control at 50 ppm [2, 3] of the same compound?
Its pest or weed control at 50 ppm is less than 30%.

How did the IC50 [1] turn out when `OCC1OC(n2cnc3c(O)ncnc32)C(O)C1O` (stereo not shown) [DC05429] was run?
Its IC50 is greater than 100 µM.

What about the pest or weed control at 50 ppm [2, 3] of the same compound?
The pest or weed control at 50 ppm was less than 30%.
